Experimental data published in ChEMBL document CHEMBL2407026, “11β-HSD1 inhibitors from Walsura cochinchinensis” (J Nat Prod, 2013).

Assays:
[1] = target: T1, 11-beta-hydroxysteroid dehydrogenase 1 (Homo sapiens, UniProt P28845); assay: Inhibition of human microsomal 11beta-HSD1 overexpressed in HEK293 cells using [3H]-cortisone as substrate assessed as formation of [3H]-cortisol at 10 uM by scintillation proximity assay in presence of NADPH relative to control
Target sequence in this assay (P28845 whole entry, looked up): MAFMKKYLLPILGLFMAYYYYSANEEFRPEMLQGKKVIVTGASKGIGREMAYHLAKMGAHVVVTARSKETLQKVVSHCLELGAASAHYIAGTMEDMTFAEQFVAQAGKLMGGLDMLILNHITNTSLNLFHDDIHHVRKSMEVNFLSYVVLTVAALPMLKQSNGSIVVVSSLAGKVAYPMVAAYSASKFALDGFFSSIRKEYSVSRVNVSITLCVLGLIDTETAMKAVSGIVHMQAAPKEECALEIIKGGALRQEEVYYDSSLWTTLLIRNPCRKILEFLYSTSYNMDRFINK

[2] = target: 11-beta-hydroxysteroid dehydrogenase 1 (Mus musculus) (UniProt P50172); assay: Inhibition of mouse microsomal 11beta-HSD1 overexpressed in HEK293 cells using [3H]-cortisone as substrate assessed as formation of [3H]-cortisol at 10 uM by scintillation proximity assay in presence of NADPH relative to control
[3] = target: T1, 11-beta-hydroxysteroid dehydrogenase 1; assay: Inhibition of human microsomal 11beta-HSD1 overexpressed in HEK293 cells using [3H]-cortisone as substrate assessed as formation of [3H]-cortisol by scintillation proximity assay in presence of NADPH
Target sequence in this assay (P28845 whole entry): as the sequence (P28845 whole entry, looked up) above

[4] = target: 11-beta-hydroxysteroid dehydrogenase 1 (Mus musculus, UniProt P50172); assay: Inhibition of mouse microsomal 11beta-HSD1 overexpressed in HEK293 cells using [3H]-cortisone as substrate assessed as formation of [3H]-cortisol by scintillation proximity assay in presence of NADPH
11-beta-hydroxysteroid dehydrogenase 1 (Mus musculus, UniProt P50172), sequence (P50172 whole entry): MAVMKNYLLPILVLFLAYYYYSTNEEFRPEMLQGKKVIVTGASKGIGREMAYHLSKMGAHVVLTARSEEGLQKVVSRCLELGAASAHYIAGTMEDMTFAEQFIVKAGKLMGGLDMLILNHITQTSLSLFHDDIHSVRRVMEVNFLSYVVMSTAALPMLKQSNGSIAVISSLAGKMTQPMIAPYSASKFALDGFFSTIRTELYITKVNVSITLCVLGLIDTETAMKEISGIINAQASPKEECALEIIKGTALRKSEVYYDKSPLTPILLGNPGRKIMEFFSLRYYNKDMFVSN

11-beta-hydroxysteroid dehydrogenase 1 (Mus musculus), sequence (P50172 whole entry, looked up): as the sequence (P50172 whole entry) above

Structure (SMILES)	inhibition [1]	inhibition [2]	IC50 [3]	IC50 [4]
CC(C)=CC(=O)[C@@H](O)[C@H](C)[C@@H]1CC[C@]2(C)C3=CC[C@H]4C(C)(C)[C@H](O)CC[C@]4(C)[C@H]3C[C@@H](O)[C@@]12C	45%	45%	–	–
CCC(C)C(=O)O[C@@H]1C[C@H]2C(C)(C)C(=O)C=C[C@]2(C)[C@H]2[C@@H](OC(C)=O)C[C@]3(C)C(=CC(=O)[C@H]3c3ccoc3)[C@@]21C (relative stereo)	> 50%	–	11.4 µM	–
CC(C)=CC(=O)[C@@H](O)[C@H](C)[C@@H]1CC[C@]2(C)C3=CC[C@H]4C(C)(C)[C@@H](O)CC[C@]4(C)[C@H]3C[C@@H](O)[C@@]12C	> 60%	> 60%	3.74 µM	1.15 µM
CC(C)(O)[C@@H](O)[C@H]1C[C@@H]([C@@H]2CC[C@]3(C)C4=CC[C@H]5C(C)(C)[C@@H](O)CC[C@]5(C)[C@H]4CC[C@@]23C)C(=O)O1	> 60%	> 60%	3.2 µM	0.82 µM
